What was measured:
[1] = system: SARS-CoV-2 cellular entry; details: in vitro as well as in vivo; cited from earlier work
COVID-19 infection [2] = assay: Phase IIa study: throat-family symptom score; type: in vivo
SARS-CoV-1 = details: mice; reduced from 100%; concentration similar to clinically achievable concentration in humans; cited from earlier work
COVID-19 infection [3] = assay: Phase IIa study: COVID-19 PRO daily self-score, symptom severity score (items 1-33, 0-132); type: in vivo

## CN(C)C(=O)COC(=O)Cc1ccc(OC(=O)c2ccc(NC(=N)N)cc2)cc1 [camostat, 4-[[4-[(Aminoiminomethyl)amino]benzoyl]oxy]benzeneacetic acid 2-(dimethylamino)-2-oxoethyl ester]
[1]
  SARS-CoV-2 cellular entry: can be blocked
COVID-19 infection [2]; day 0
  throat-family symptom score, Fitzmaurice model, Camostat: 2.3 (0.3)
COVID-19 infection [2]; day 1
  throat-family symptom score, Fitzmaurice model, Camostat: 2 (0.3)
  throat-family symptom score, Fitzmaurice model, Effect (placebo vs camostat): −0.7 (0.4)
COVID-19 infection [2]; day 2
  throat-family symptom score, Fitzmaurice model, Camostat: 1.7 (0.4)
  throat-family symptom score, Fitzmaurice model, Effect (placebo vs camostat): −0.8 (0.4)
COVID-19 infection [2]; day 3
  throat-family symptom score, Fitzmaurice model, Camostat: 1.6 (0.3)
  throat-family symptom score, Fitzmaurice model, Effect (placebo vs camostat): −0.7 (0.4)
COVID-19 infection [2]; day 4
  throat-family symptom score, Fitzmaurice model, Camostat: 1.7 (0.3)
  throat-family symptom score, Fitzmaurice model, Effect (placebo vs camostat): −0.9 (0.4)
COVID-19 infection [2]; day 5
  throat-family symptom score, Fitzmaurice model, Camostat: 1.1 (0.3)
  throat-family symptom score, Fitzmaurice model, Effect (placebo vs camostat): −0.2 (0.4)
COVID-19 infection [2]; day 6
  throat-family symptom score, Fitzmaurice model, Camostat: 0.9 (0.4)
  throat-family symptom score, Fitzmaurice model, Effect (placebo vs camostat): −0.1 (0.4)
COVID-19 infection [2]; day 7
  throat-family symptom score, Fitzmaurice model, Camostat: 0.7 (0.4)
  throat-family symptom score, Fitzmaurice model, Effect (placebo vs camostat): −0.3 (0.4)
COVID-19 infection [2]; day 8
  throat-family symptom score, Fitzmaurice model, Camostat: 0.6 (0.4)
  throat-family symptom score, Fitzmaurice model, Effect (placebo vs camostat): −0.2 (0.4)
COVID-19 infection [2]; day 9
  throat-family symptom score, Fitzmaurice model, Camostat: 0.4 (0.4)
  throat-family symptom score, Fitzmaurice model, Effect (placebo vs camostat): −0.1 (0.4)
COVID-19 infection [2]; day 10
  throat-family symptom score, Fitzmaurice model, Camostat: 0.5 (0.4)
  throat-family symptom score, Fitzmaurice model, Effect (placebo vs camostat): −0.4 (0.4)
COVID-19 infection [2]; day 11
  throat-family symptom score, Fitzmaurice model, Camostat: 0.6 (0.4)
  throat-family symptom score, Fitzmaurice model, Effect (placebo vs camostat): −0.4 (0.4)
COVID-19 infection [2]; day 12
  throat-family symptom score, Fitzmaurice model, Camostat: 0.5 (0.4)
  throat-family symptom score, Fitzmaurice model, Effect (placebo vs camostat): −0.4 (0.4)
COVID-19 infection [2]; day 13
  throat-family symptom score, Fitzmaurice model, Camostat: 0.5 (0.4)
  throat-family symptom score, Fitzmaurice model, Effect (placebo vs camostat): −0.4 (0.5)
COVID-19 infection [2]; day 14
  throat-family symptom score, Fitzmaurice model, Camostat: 0.5 (0.4)
  throat-family symptom score, Fitzmaurice model, Effect (placebo vs camostat): −0.5 (0.5)
SARS-CoV-1
  mortality following SARS-CoV-1 infection: 30-35%
COVID-19 infection [3]; COVID-19 PRO self-score, vs placebo
  acceleration of COVID-19 symptom resolution: up to 5 days
COVID-19 infection [3]; day 0
  COVID-19 symptom severity score raw Mean: 34.9
  symptom score, Fitzmaurice mixed effects model, A: Camostat arm: 31.81 (2.17)
  symptom score, Fitzmaurice mixed effects model, B − A (placebo − camostat): 0
  symptom severity score, Negative binomial model, A: Camostat arm: 31.81 (2.56)
  symptom severity score, Negative binomial model, B − A: 0
COVID-19 infection [3]; day 1
  COVID-19 symptom severity score raw Mean: 30.4
  symptom score, Fitzmaurice mixed effects model, A: Camostat arm: 27.95 (2.59)
  symptom score, Fitzmaurice mixed effects model, B − A (placebo − camostat): −0.73 (2.76)
  symptom severity score, ANCOVA linear mixed model, A: Camostat arm: −2.93 (2.11)
  symptom severity score, ANCOVA linear mixed model, B − A (placebo − camostat): −1.83 (2.99)
  symptom severity score, Negative binomial model, A: Camostat arm: 28.22 (3.06)
  symptom severity score, Negative binomial model, B − A: 0.95 (0.1)
COVID-19 infection [3]; day 2
  COVID-19 symptom severity score raw Mean: 29.7
  symptom score, Fitzmaurice mixed effects model, A: Camostat arm: 26.89 (2.63)
  symptom score, Fitzmaurice mixed effects model, B − A (placebo − camostat): −3.09 (2.8)
  symptom severity score, ANCOVA linear mixed model, A: Camostat arm: −3.96 (2.16)
  symptom severity score, ANCOVA linear mixed model, B − A (placebo − camostat): −4.22 (3.02)
  symptom severity score, Negative binomial model, A: Camostat arm: 27.28 (3.05)
  symptom severity score, Negative binomial model, B − A: 0.85 (0.1)
COVID-19 infection [3]; day 3
  COVID-19 symptom severity score raw Mean: 24.1
  symptom score, Fitzmaurice mixed effects model, A: Camostat arm: 22.97 (2.6)
  symptom score, Fitzmaurice mixed effects model, B − A (placebo − camostat): −0.36 (2.79)
  symptom severity score, ANCOVA linear mixed model, A: Camostat arm: −8.01 (2.13)
  symptom severity score, ANCOVA linear mixed model, B − A (placebo − camostat): −1.34 (3.01)
  symptom severity score, Negative binomial model, A: Camostat arm: 23.35 (3.02)
  symptom severity score, Negative binomial model, B − A: 0.96 (0.13)
COVID-19 infection [3]; day 4
  COVID-19 symptom severity score raw Mean: 20.8
  symptom score, Fitzmaurice mixed effects model, A: Camostat arm: 19.69 (2.6)
  symptom score, Fitzmaurice mixed effects model, B − A (placebo − camostat): 0.89 (2.8)
  symptom severity score, ANCOVA linear mixed model, A: Camostat arm: −11.29 (2.13)
  symptom severity score, ANCOVA linear mixed model, B − A (placebo − camostat): −0.1 (3.02)
  symptom severity score, Negative binomial model, A: Camostat arm: 20.17 (2.89)
  symptom severity score, Negative binomial model, B − A: 1 (0.17)
COVID-19 infection [3]; day 5
  COVID-19 symptom severity score raw Mean: 17.7
  symptom score, Fitzmaurice mixed effects model, A: Camostat arm: 16.57 (2.6)
  symptom score, Fitzmaurice mixed effects model, B − A (placebo − camostat): 5.84 (2.79)
  symptom severity score, ANCOVA linear mixed model, A: Camostat arm: −14.41 (2.13)
  symptom severity score, ANCOVA linear mixed model, B − A (placebo − camostat): 4.84 (3.01)
  symptom severity score, Negative binomial model, A: Camostat arm: 17.14 (2.63)
  symptom severity score, Negative binomial model, B − A: 1.27 (0.24)
COVID-19 infection [3]; day 6
  COVID-19 symptom severity score raw Mean: 14.1
  symptom score, Fitzmaurice mixed effects model, A: Camostat arm: 12.53 (2.62)
  symptom score, Fitzmaurice mixed effects model, B − A (placebo − camostat): 6.9 (2.81)
  symptom severity score, ANCOVA linear mixed model, A: Camostat arm: −18.43 (2.15)
  symptom severity score, ANCOVA linear mixed model, B − A (placebo − camostat): 5.89 (3.02)
  symptom severity score, Negative binomial model, A: Camostat arm: 13.4 (2.45)
  symptom severity score, Negative binomial model, B − A: 1.38 (0.29)
COVID-19 infection [3]; day 7
  COVID-19 symptom severity score raw Mean: 12.6
  symptom score, Fitzmaurice mixed effects model, A: Camostat arm: 11.37 (2.67)
  symptom score, Fitzmaurice mixed effects model, B − A (placebo − camostat): 4.68 (2.84)
  symptom severity score, ANCOVA linear mixed model, A: Camostat arm: −19.64 (2.2)
  symptom severity score, ANCOVA linear mixed model, B − A (placebo − camostat): 3.71 (3.05)
  symptom severity score, Negative binomial model, A: Camostat arm: 12.09 (2.79)
  symptom severity score, Negative binomial model, B − A: 1.23 (0.3)
COVID-19 infection [3]; day 8
  COVID-19 symptom severity score raw Mean: 11.4
  symptom score, Fitzmaurice mixed effects model, A: Camostat arm: 9.57 (2.67)
  symptom score, Fitzmaurice mixed effects model, B − A (placebo − camostat): 5.4 (2.85)
  symptom severity score, ANCOVA linear mixed model, A: Camostat arm: −21.42 (2.2)
  symptom severity score, ANCOVA linear mixed model, B − A (placebo − camostat): 4.43 (3.06)
  symptom severity score, Negative binomial model, A: Camostat arm: 10.6 (2.64)
  symptom severity score, Negative binomial model, B − A: 1.28 (0.34)
COVID-19 infection [3]; day 9
  COVID-19 symptom severity score raw Mean: 10.7
  symptom score, Fitzmaurice mixed effects model, A: Camostat arm: 8.86 (2.67)
  symptom score, Fitzmaurice mixed effects model, B − A (placebo − camostat): 5.13 (2.85)
  symptom severity score, ANCOVA linear mixed model, A: Camostat arm: −22.13 (2.2)
  symptom severity score, ANCOVA linear mixed model, B − A (placebo − camostat): 4.16 (3.06)
  symptom severity score, Negative binomial model, A: Camostat arm: 9.94 (2.43)
  symptom severity score, Negative binomial model, B − A: 1.25 (0.33)
COVID-19 infection [3]; day 10
  COVID-19 symptom severity score raw Mean: 10
  symptom score, Fitzmaurice mixed effects model, A: Camostat arm: 8.24 (2.67)
  symptom score, Fitzmaurice mixed effects model, B − A (placebo − camostat): 4.67 (2.85)
  symptom severity score, ANCOVA linear mixed model, A: Camostat arm: −22.75 (2.2)
  symptom severity score, ANCOVA linear mixed model, B − A (placebo − camostat): 3.7 (3.06)
  symptom severity score, Negative binomial model, A: Camostat arm: 9.36 (2.56)
  symptom severity score, Negative binomial model, B − A: 1.2 (0.36)
COVID-19 infection [3]; day 11
  COVID-19 symptom severity score raw Mean: 9.3
  symptom score, Fitzmaurice mixed effects model, A: Camostat arm: 7.25 (2.69)
  symptom score, Fitzmaurice mixed effects model, B − A (placebo − camostat): 4.44 (2.87)
  symptom severity score, ANCOVA linear mixed model, A: Camostat arm: −23.77 (2.22)
  symptom severity score, ANCOVA linear mixed model, B − A (placebo − camostat): 3.5 (3.08)
  symptom severity score, Negative binomial model, A: Camostat arm: 8.49 (2.3)
  symptom severity score, Negative binomial model, B − A: 1.17 (0.35)
COVID-19 infection [3]; day 12
  COVID-19 symptom severity score raw Mean: 9.6
  symptom score, Fitzmaurice mixed effects model, A: Camostat arm: 8.18 (2.69)
  symptom score, Fitzmaurice mixed effects model, B − A (placebo − camostat): 2.39 (2.88)
  symptom severity score, ANCOVA linear mixed model, A: Camostat arm: −22.87 (2.22)
  symptom severity score, ANCOVA linear mixed model, B − A (placebo − camostat): 1.46 (3.09)
  symptom severity score, Negative binomial model, A: Camostat arm: 9.06 (2.18)
  symptom severity score, Negative binomial model, B − A: 0.94 (0.25)
COVID-19 infection [3]; day 13
  COVID-19 symptom severity score raw Mean: 9.7
  symptom score, Fitzmaurice mixed effects model, A: Camostat arm: 7.87 (2.75)
  symptom score, Fitzmaurice mixed effects model, B − A (placebo − camostat): 2.11 (2.95)
  symptom severity score, ANCOVA linear mixed model, A: Camostat arm: −23.17 (2.29)
  symptom severity score, ANCOVA linear mixed model, B − A (placebo − camostat): 1.17 (3.15)
  symptom severity score, Negative binomial model, A: Camostat arm: 8.9 (2.27)
  symptom severity score, Negative binomial model, B − A: 0.88 (0.26)
COVID-19 infection [3]; day 14
  COVID-19 symptom severity score raw Mean: 8.2
  symptom score, Fitzmaurice mixed effects model, A: Camostat arm: 7.8 (2.75)
  symptom score, Fitzmaurice mixed effects model, B − A (placebo − camostat): 2.24 (2.97)
  symptom severity score, ANCOVA linear mixed model, A: Camostat arm: −23.26 (2.29)
  symptom severity score, ANCOVA linear mixed model, B − A (placebo − camostat): 1.32 (3.16)
  symptom severity score, Negative binomial model, A: Camostat arm: 8.11 (2.11)
  symptom severity score, Negative binomial model, B − A: 1.03 (0.31)
COVID-19 infection [3]; days 5 through 10, did not reach statistical significance
  symptom severity scores compared to placebo: lower
